According to article PMC2009384, “The carcinogenicity of polycyclic hydrocarbon epoxides in newborn mice” (British Journal of Cancer, 1975):

Assays:
newborn Swiss mice = assay: Experiment I: carcinogenicity in newborn mice, benz(a)anthracene vs its K region epoxide (s.c. injection, tumour incidence to 70-75 weeks)
Text: Br. J. Cancer (1975) 31, 182 THE CARCINOGENICITY OF POLYCYCLIC HYDROCARBON EPOXIDES IN NEWBORN MICE P. L. GROVER, P. SIMS, B. C. V. MITCHLEY AND F. J. C. ROE From the Chester Beatty Research Institute, Institute of Cancer Research, Royal Cancer Hospital, Fulham Road, London, SW3 6JB Received 9 August 1974. […] THE HYPOTHESIS that the carcino- genicity of polycyclic hydrocarbons is associated with the formation of epoxide metabolites (Grover, Hewer and Sims, 1971, 1972; Keysell et al., 1973) is sup- ported by some experimental evidence but remains unproven. […] The epoxides can also act as alkylating agents (Grover and Sims, 1970) and as mutagens (Ames, Sims and Grover, 1972; Huberman et al., 1971; Cookson, Sims and Grover, 1971; Fahmy and Fahmy, 1973). […] The newborn mouse, which is susceptible to carcinogenic polycyclic hydrocarbons (Roe, Rowson and Salaman, 1961; Roe, Mitchley and Walters, 1963; Walters and Roe, 1964, 1966) can be considered as a convenient source of several types of rapidly dividing cells. Consequently we have tested the K region epoxides derived from phenanthrene, benz(a)anthracene, 7-methylbenz(a)anthracene, dibenz(a,h)- anthracene, chrysene and 3-methylchol- anthrene, together with some of the CARCINOGENICITY OF POLYCYCLIC HYDROCARBON EPOXIDES IN MICE 183 parent hydrocarbons, for carcinogenicity using newborn mice. This paper presents the results that were obtained in these experiments. MATERIALS AND METHODS The polycyclic hydrocarbon epoxides, phenanthrene 9,10-oxide, benz(a)anthracene 5,6-oxide, 7-methylbenz(a)anthracene 5,6- oxide, dibenz(a,h)anthracene 5,6-oxide, chry- sene 5,6-oxide and 3-methylcholanthrene 11,12-oxide were prepared from the parent hydrocarbons (Newman and Blum, 1964; Boyland and Sims, 1965; Sims 1966). Two experiments were undertaken fol- lowing similar protocols. For each experi- ment Swiss mice from a specific pathogen- free colony were time mated so as to produce a large number of litters over the course of 2 or 3 days. […] Test compounds were suspended in poly- ethylene glycol (PEG) 400 and injections of 0-02 ml of the suspension were given by introducing a 25 gauge hypodermic needle through the skin near the root of the tail and threading it subcutaneously to deliver the injected material in the interscapular region. Injections were given to every mouse on the first day or first 3 days of life. The details of treatments and numbers of mice of each sex in each group are shown in Table I (Experiment I) and Table II (Ex- periment II). Surviving mice were weaned when they w ere 21 days old. Thereafter, males and females w ere separated and housed 6 per cage in metal boxes. A mixture of sawdust and wood shavings was used as bedding. The mice were fed on a standard cubed diet (Formulation 86 from C. Holdman and Sons (Plow co Feeds), Byers Lane, South Godstone, Surrey) and water was given ad libitum. Mice were inspected daily, and at weekly intervals they were weighed and palpated for tumours and other lesions. […] The experiment was terminated when surviving mice were between 70 and 75 weeks old. A full routine post- mortem examination, which included disten- sion of the urinary bladder with fixative, was carried out. The number of lesions thought to be neoplasms and the size of the largest such lesion in each organ affected were recorded. All tissues with suspected neoplasms were fixed in Bouin's solution. Haematoxylin and eosin stained 5 µm paraffin wax sections were prepared and examined microscopically. RESULTS The results of the two experiments in terms of tumour incidence are sum- marized in […].

newborn mice = settings: ref Roe and Walters, 1967; cited from earlier work
[1] = Groups A, B and C, 3 x 200, 100, 50 µg s.c.
[2] = females, 50 µg per treatment s.c. on Days 0, 1 and 2
[3] = females, 50 µg per treatment s.c. on Days 0, 1 and 2 in PEG 400
[4] = females, 100 µg per treatment s.c. on Days 0, 1 and 2
[5] = females, 100 µg per treatment s.c. on Days 0, 1 and 2 in PEG 400
[6] = females, 200 µg per treatment s.c. on Days 0, 1 and 2
[7] = females, 200 µg per treatment s.c. on Days 0, 1 and 2 in PEG 400
[8] = males, 50 µg per treatment s.c. on Days 0, 1 and 2
[9] = males, 50 µg per treatment s.c. on Days 0, 1 and 2 in PEG 400
[10] = males, 100 µg per treatment s.c. on Days 0, 1 and 2
[11] = males, 100 µg per treatment s.c. on Days 0, 1 and 2 in PEG 400
[12] = males, 200 µg per treatment s.c. on Days 0, 1 and 2
[13] = males, 200 µg per treatment s.c. on Days 0, 1 and 2 in PEG 400

c1ccc2cc3c(ccc4ccccc43)cc2c1 [Benz(a)anthracene, reference compound]
effect on the incidence of liver tumours in male mice (newborn Swiss mice; [1]): dose related effect | effect on the incidence of lung tumours in mice of both sexes (newborn Swiss mice; [1]): dose related effect | No. of mice examined at p.m. at termination of experiment (70th-75th week) with liver tumours (newborn Swiss mice; [2]): 2 | No. of mice examined at p.m. at termination of experiment (70th-75th week) with lung tumours (newborn Swiss mice; [2]): 7 | No. of mice examined at p.m. at termination of experiment (70th-75th week) with multiple liver tumours (newborn Swiss mice; [2]): 1 | No. of mice examined at p.m. at termination of experiment (70th-75th week) with multiple lung tumours (newborn Swiss mice; [2]): 3 | No. of mice examined at p.m. at termination of experiment (70th-75th week) with other tumours (newborn Swiss mice; [2]): 0 | No. of mice examined at p.m. from 50th-70th week with liver tumours (newborn Swiss mice; [2]): 0 | No. of mice examined at p.m. from 50th-70th week with lung tumours (newborn Swiss mice; [2]): 1 | No. of mice examined at p.m. from 50th-70th week with other tumours (newborn Swiss mice; [2]): 0 | No. of survivors at 50 weeks (newborn Swiss mice; [3]): 25 | No. of survivors at 70 weeks (newborn Swiss mice; [3]): 21 | No. of mice examined at p.m. at termination of experiment (70th-75th week) with liver tumours (newborn Swiss mice; [4]): 0 | No. of mice examined at p.m. at termination of experiment (70th-75th week) with lung tumours (newborn Swiss mice; [4]): 5 | No. of mice examined at p.m. at termination of experiment (70th-75th week) with multiple liver tumours (newborn Swiss mice; [4]): 0 | No. of mice examined at p.m. at termination of experiment (70th-75th week) with multiple lung tumours (newborn Swiss mice; [4]): 2 | No. of mice examined at p.m. at termination of experiment (70th-75th week) with other tumours (newborn Swiss mice; [4]): 0 | No. of mice examined at p.m. from 50th-70th week with liver tumours (newborn Swiss mice; [4]): 0 | No. of mice examined at p.m. from 50th-70th week with lung tumours (newborn Swiss mice; [4]): 2 | No. of mice examined at p.m. from 50th-70th week with other tumours (newborn Swiss mice; [4]): 0 | No. of survivors at 50 weeks (newborn Swiss mice; [5]): 17 | No. of survivors at 70 weeks (newborn Swiss mice; [5]): 13 | No. of mice examined at p.m. at termination of experiment (70th-75th week) with liver tumours (newborn Swiss mice; [6]): 2 | No. of mice examined at p.m. at termination of experiment (70th-75th week) with lung tumours (newborn Swiss mice; [6]): 10 | No. of mice examined at p.m. at termination of experiment (70th-75th week) with multiple liver tumours (newborn Swiss mice; [6]): 1 | No. of mice examined at p.m. at termination of experiment (70th-75th week) with multiple lung tumours (newborn Swiss mice; [6]): 10 | No. of mice examined at p.m. at termination of experiment (70th-75th week) with other tumours (newborn Swiss mice; [6]): 1 | No. of mice examined at p.m. from 50th-70th week with liver tumours (newborn Swiss mice; [6]): 0 | No. of mice examined at p.m. from 50th-70th week with lung tumours (newborn Swiss mice; [6]): 0 | No. of mice examined at p.m. from 50th-70th week with other tumours (newborn Swiss mice; [6]): 0 | No. of survivors at 50 weeks (newborn Swiss mice; [7]): 18 | No. of survivors at 70 weeks (newborn Swiss mice; [7]): 18 | No. of mice examined at p.m. at termination of experiment (70th-75th week) with liver tumours (newborn Swiss mice; [8]): 9 | No. of mice examined at p.m. at termination of experiment (70th-75th week) with lung tumours (newborn Swiss mice; [8]): 5 | No. of mice examined at p.m. at termination of experiment (70th-75th week) with multiple liver tumours (newborn Swiss mice; [8]): 5 | No. of mice examined at p.m. at termination of experiment (70th-75th week) with multiple lung tumours (newborn Swiss mice; [8]): 2 | No. of mice examined at p.m. at termination of experiment (70th-75th week) with other tumours (newborn Swiss mice; [8]): 0 | No. of mice examined at p.m. from 50th-70th week with liver tumours (newborn Swiss mice; [8]): 3 | No. of mice examined at p.m. from 50th-70th week with lung tumours (newborn Swiss mice; [8]): 1 | No. of mice examined at p.m. from 50th-70th week with other tumours (newborn Swiss mice; [8]): 0 | No. of survivors at 50 weeks (newborn Swiss mice; [9]): 29 | No. of survivors at 70 weeks (newborn Swiss mice; [9]): 25 | No. of mice examined at p.m. at termination of experiment (70th-75th week) with liver tumours (newborn Swiss mice; [10]): 15 | No. of mice examined at p.m. at termination of experiment (70th-75th week) with lung tumours (newborn Swiss mice; [10]): 5 | No. of mice examined at p.m. at termination of experiment (70th-75th week) with multiple liver tumours (newborn Swiss mice; [10]): 11 | No. of mice examined at p.m. at termination of experiment (70th-75th week) with multiple lung tumours (newborn Swiss mice; [10]): 3 | No. of mice examined at p.m. at termination of experiment (70th-75th week) with other tumours (newborn Swiss mice; [10]): 1 | No. of mice examined at p.m. from 50th-70th week with liver tumours (newborn Swiss mice; [10]): 4 | No. of mice examined at p.m. from 50th-70th week with lung tumours (newborn Swiss mice; [10]): 1 | No. of mice examined at p.m. from 50th-70th week with other tumours (newborn Swiss mice; [10]): 0 | No. of survivors at 50 weeks (newborn Swiss mice; [11]): 25 | No. of survivors at 70 weeks (newborn Swiss mice; [11]): 19 | No. of mice examined at p.m. at termination of experiment (70th-75th week) with liver tumours (newborn Swiss mice; [12]): 15 | No. of mice examined at p.m. at termination of experiment (70th-75th week) with lung tumours (newborn Swiss mice; [12]): 4 | No. of mice examined at p.m. at termination of experiment (70th-75th week) with multiple liver tumours (newborn Swiss mice; [12]): 15 | No. of mice examined at p.m. at termination of experiment (70th-75th week) with multiple lung tumours (newborn Swiss mice; [12]): 4 | No. of mice examined at p.m. at termination of experiment (70th-75th week) with other tumours (newborn Swiss mice; [12]): 0 | No. of mice examined at p.m. from 50th-70th week with liver tumours (newborn Swiss mice; [12]): 1 | No. of mice examined at p.m. from 50th-70th week with lung tumours (newborn Swiss mice; [12]): 1 | No. of mice examined at p.m. from 50th-70th week with other tumours (newborn Swiss mice; [12]): 0 | No. of survivors at 50 weeks (newborn Swiss mice; [13]): 18 | No. of survivors at 70 weeks (newborn Swiss mice; [13]): 15

c1ccc2c(c1)ccc1ccccc12 [phenanthrene]
activity in newborn mice (newborn mice): inactive
